Results from ChEMBL document CHEMBL1201862, “PubChem BioAssay data set” (2004).
Activity calls are given as the source filed them.

Tests used:
[1] = molecular target: T1, SUMO-activating enzyme (Homo sapiens, UniProt Q9UBT2); assay: blockers of UBC9-mediated SUMO conjugation – biochemical, AlphaScreen, SUMOylation inhibitor project, confirmation (AID 2018); format: functional
[2] = molecular target: Large T antigen (Simian virus 40, UniProt P03070); format: functional, Betapolyomavirus macacae;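 further: Confirmatory-stage PubChem screen for compounds that inhibit SV40 T antigen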
[3] = molecular target: T1, SUMO-activating enzyme; assay: blockers of SAE1/SAE2–UBC9 SUMO transfer – biochemical, HTRF, uHTS, primary screen (AID 2006); format: protein-complex assay
[4] = molecular target: Intestinal-type alkaline phosphatase (Homo sapiens, UniProt P09923); assay: activation of human intestinal alkaline phosphatase – biochemical, dose response (AID 488873); format: functional
[5] = molecular target: Intestinal-type alkaline phosphatase (Mus musculus, UniProt P24822); assay: mouse intestinal alkaline phosphatase activators, dose response, biochemical, luminescence, uHTS hits (AID 488783); format: functional
[6] = molecular target: T2, Alkaline phosphatase, tissue-nonspecific isozyme (Homo sapiens, UniProt P05186); assay: activation of tissue-nonspecific alkaline phosphatase – biochemical, TNAP isozyme, mouse IAP uHTS hits, selectivity assay for mouse IAP activator project, dose response (AID 488880); format: functional
T2 sequence (P05186 whole entry): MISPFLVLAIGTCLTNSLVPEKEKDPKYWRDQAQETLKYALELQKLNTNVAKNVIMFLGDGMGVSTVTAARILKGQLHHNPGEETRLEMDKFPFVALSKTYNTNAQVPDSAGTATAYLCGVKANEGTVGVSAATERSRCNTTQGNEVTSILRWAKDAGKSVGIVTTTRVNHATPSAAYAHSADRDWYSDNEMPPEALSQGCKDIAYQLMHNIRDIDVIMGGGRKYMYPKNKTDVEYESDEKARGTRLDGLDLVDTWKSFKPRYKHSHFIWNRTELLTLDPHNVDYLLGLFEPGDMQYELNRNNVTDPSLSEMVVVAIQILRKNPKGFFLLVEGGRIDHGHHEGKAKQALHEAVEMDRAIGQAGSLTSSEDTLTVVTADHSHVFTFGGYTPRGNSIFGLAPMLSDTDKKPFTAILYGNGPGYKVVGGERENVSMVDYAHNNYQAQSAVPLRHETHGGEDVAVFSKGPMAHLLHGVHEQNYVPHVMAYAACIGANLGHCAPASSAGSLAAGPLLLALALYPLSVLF

T1 sequence (Q9UBE0 whole entry): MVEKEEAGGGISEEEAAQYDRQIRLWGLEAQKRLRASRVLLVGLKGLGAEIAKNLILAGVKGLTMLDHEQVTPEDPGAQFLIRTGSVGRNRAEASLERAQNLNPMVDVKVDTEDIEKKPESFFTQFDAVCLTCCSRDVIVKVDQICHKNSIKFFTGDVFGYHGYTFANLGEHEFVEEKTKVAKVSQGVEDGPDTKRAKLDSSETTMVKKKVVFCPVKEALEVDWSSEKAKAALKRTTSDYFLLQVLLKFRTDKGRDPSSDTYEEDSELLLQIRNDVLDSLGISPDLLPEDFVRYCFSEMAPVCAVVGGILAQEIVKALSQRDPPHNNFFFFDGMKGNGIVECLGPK
T1 sequence (Q9UBT2 whole entry): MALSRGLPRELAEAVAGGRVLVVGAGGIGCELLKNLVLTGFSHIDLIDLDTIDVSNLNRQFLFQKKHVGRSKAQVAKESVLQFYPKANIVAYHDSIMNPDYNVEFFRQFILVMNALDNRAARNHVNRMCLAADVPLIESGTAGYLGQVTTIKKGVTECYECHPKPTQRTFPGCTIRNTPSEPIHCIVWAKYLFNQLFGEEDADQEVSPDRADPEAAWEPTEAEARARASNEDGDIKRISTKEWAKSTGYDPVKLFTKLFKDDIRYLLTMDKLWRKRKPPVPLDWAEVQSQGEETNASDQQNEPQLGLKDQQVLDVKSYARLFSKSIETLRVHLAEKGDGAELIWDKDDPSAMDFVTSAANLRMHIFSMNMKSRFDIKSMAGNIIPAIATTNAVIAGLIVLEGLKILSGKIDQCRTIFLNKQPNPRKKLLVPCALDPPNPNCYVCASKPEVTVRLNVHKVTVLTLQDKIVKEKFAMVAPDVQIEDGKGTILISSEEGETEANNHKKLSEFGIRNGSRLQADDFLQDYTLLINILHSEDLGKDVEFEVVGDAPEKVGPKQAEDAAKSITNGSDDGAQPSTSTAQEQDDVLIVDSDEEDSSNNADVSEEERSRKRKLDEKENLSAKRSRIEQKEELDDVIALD
Sequence of Large T antigen (P03070 whole entry): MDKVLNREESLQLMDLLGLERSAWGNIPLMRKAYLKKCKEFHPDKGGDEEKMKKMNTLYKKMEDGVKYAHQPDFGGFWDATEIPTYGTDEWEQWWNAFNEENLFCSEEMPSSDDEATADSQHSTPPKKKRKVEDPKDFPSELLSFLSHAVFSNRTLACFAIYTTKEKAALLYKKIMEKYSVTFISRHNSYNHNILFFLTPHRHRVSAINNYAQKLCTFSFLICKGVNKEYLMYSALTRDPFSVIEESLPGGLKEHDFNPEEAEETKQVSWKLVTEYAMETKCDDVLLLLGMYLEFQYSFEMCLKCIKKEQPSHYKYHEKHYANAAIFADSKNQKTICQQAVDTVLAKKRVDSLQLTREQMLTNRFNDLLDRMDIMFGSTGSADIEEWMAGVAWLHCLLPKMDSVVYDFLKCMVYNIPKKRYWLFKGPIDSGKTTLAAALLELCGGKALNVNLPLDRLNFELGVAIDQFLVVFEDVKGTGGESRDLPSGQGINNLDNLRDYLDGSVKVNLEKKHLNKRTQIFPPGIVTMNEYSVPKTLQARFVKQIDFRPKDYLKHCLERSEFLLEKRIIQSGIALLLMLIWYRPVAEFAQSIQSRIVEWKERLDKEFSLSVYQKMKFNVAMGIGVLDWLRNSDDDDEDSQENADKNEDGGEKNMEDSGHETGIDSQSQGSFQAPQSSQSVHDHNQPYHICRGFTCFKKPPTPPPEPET
Sequence of Intestinal-type alkaline phosphatase (Homo sapiens, UniProt P09923) (P09923 whole entry): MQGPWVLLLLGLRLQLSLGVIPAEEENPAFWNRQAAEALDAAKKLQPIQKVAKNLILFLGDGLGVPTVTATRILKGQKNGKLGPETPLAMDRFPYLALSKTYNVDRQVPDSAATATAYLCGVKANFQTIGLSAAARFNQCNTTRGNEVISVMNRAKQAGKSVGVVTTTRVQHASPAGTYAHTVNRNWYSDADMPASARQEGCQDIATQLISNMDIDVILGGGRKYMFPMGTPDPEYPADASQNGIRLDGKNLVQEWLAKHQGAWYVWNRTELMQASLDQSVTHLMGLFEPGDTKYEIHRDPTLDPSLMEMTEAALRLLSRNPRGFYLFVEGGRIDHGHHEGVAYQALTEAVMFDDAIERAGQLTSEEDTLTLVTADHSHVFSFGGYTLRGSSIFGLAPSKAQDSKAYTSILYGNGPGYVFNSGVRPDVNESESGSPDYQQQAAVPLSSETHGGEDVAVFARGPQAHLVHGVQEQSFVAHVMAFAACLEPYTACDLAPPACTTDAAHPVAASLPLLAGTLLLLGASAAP
Sequence of Intestinal-type alkaline phosphatase (Mus musculus, UniProt P24822) (P24822 whole entry): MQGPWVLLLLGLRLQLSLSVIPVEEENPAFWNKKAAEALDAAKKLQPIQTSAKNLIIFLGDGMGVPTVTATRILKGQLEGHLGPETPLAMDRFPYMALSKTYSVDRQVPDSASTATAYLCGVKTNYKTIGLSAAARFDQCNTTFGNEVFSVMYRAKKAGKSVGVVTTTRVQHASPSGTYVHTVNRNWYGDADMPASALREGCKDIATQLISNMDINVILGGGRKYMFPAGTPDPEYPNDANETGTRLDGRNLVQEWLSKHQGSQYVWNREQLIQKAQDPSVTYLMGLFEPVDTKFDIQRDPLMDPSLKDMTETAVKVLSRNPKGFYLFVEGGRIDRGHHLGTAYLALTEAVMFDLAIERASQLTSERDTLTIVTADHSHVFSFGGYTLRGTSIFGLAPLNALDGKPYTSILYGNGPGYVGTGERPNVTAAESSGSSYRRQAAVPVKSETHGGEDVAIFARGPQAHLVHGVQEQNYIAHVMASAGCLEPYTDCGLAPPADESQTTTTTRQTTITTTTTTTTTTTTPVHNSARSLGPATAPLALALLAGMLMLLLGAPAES

O=C(CCN1C(=O)/C(=C/c2ccco2)SC1=S)Nc1ccc(C(=O)O)c(O)c1
active: IC50 [1] 1.46 µM | IC50 [2] 56.1 µM | IC50 [3] 14.3 µM | EC50 [4] 66.2 µM | EC50 [5] 7.32 µM | EC50 [6] 84.9 µM
